This experiment has as its target T1, PfTSEN1 (Plasmodium falciparum, UniProt A0A144A1E9).
T1 sequence (A0A144A1E9 1-220): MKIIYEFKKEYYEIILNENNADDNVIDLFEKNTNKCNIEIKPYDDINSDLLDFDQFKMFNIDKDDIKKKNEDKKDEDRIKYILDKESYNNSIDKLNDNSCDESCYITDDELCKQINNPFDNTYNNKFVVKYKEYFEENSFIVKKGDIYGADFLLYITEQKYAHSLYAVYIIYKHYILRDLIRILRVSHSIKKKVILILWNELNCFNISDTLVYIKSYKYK
As to the kind of experiment: microscale thermophoresis. In kind it is binding. A general note: MST reads how a fluorescent partner responds to local heating, with and without ligand.

What is called Kd is the constant that tells how readily two partners part at equilibrium. A low value points to tighter binding.

Regarding `NCCCn1ccc2c1C(=O)c1cccnc1C2=O` [TSENi, 1-(3-aminopropyl)-1H-pyrrolo[2,3-f]quinoline-4,9-dione], the dissociation constant (Kd) is 0.945 µM.

Values taken from paper doi:10.1101/2024.06.07.597859v1 (biorxiv, 2024).
